Reference: patent publication US20240025868A1, “PHENOTHIAZINE COMPOUNDS FOR THE TREATMENT OF ALZHEIMER'S DISEASE AND OTHER AGE-RELATED AND NEUROLOGICAL DISEASES” (Icahn School of Medicine at Mount Sinai, priority 2020, published 2024)
“And” between values parts separate entries of the source, which are not always exact repeats. Equal entries are not always repeated.

Tested on: Abeta transgenic C. elegans
Test: not given
Conditions: Zhang, Poplawski et al. 2009; cited from earlier work

Compound	Abeta toxicity in vivo in a C. elegans model of AD
CCCC(=O)[O-].[Na+] [sodium butyrate]	significantly reduces Abeta toxicity

Tested on: SARS-CoV-2
Test: microbe, parasite or virus in culture
Type: cell-based
Conditions: not given

Compound	SARS-CoV-2 replication
CN1CCCCC1CCN1c2ccccc2Sc2ccc(F)cc21 (stereo not drawn) [TC84-110, 2-fluoro-10-(2-(1-methylpiperidin-2-yl)ethyl)-10H-phenothiazine]	reduced SARS-CoV-2 replication
Cc1cc2c(cc1C)N(CCCN(C)C)c1ccccc1S2 [TC84-124, 3-(2,3-dimethyl-10H-phenothiazin-10-yl)-N,N-dimethylpropan-1-amine]	reduced SARS-CoV-2 replication

Same assay, conditions: Severe acute respiratory syndrome coronavirus 2, Vero

Compound	IC50
CCC(CC)COC(=O)[C@H](C)N[P@](=O)(OC[C@H]1O[C@@](C#N)(c2ccc3c(N)ncnn23)[C@H](O)[C@@H]1O)Oc1ccccc1 [Remdesivir, reference compound]	1.2 µM

Same assay, conditions: Severe acute respiratory syndrome coronavirus 2; concentration that inhibits replication of SARS-CoV-2 in Vero cells by 50%; read-out: IC50

Compound	IC50
CN1CCCCC1CCN1c2ccccc2Sc2ccc(F)cc21 (stereo not drawn) [TC84-110, 2-fluoro-10-(2-(1-methylpiperidin-2-yl)ethyl)-10H-phenothiazine]	1.2 µM
Cc1cc2c(cc1C)N(CCCN(C)C)c1ccccc1S2 [TC84-124, 3-(2,3-dimethyl-10H-phenothiazin-10-yl)-N,N-dimethylpropan-1-amine]	1.7 µM

Same assay, conditions: concentration that inhibits replication of SARS-CoV-2 in Vero cells by 50%; read-out: IC50

Compound	IC50
Chlorpromazine [reference compound]	4.4 µM
Chlorprothixene [reference compound]	1 µM

Tested on: mouse model of intracerebral hemorrhage
Test: Mouse model of intracerebral hemorrhage, motor and cognitive function
Type: in vivo
Conditions: administered after the lesion was produced
Method: FIG. 1. […] Motor function was assessed using rotarod and cognitive was assessed by alternation in a Y-maze. All data were normalized to data pre-ICH function.
Motor function was assessed using rotarod and cognitive was assessed by alternation in a Y-maze. All data were normalized to data pre-ICH function.

Compound	protection to maintain open field behavior and cognitive impairments
CN1CCCCC1CCN1c2ccccc2Sc2ccc(F)cc21 (stereo not drawn) [TC84-110, 2-fluoro-10-(2-(1-methylpiperidin-2-yl)ethyl)-10H-phenothiazine]	significantly protective

Same assay, conditions: alternation in a Y-maze; compared to DMSO; normalized to pre-ICH function

Compound	cognitive function
CN1CCCCC1CCN1c2ccccc2Sc2ccc(F)cc21 (stereo not drawn) [TC84-110, 2-fluoro-10-(2-(1-methylpiperidin-2-yl)ethyl)-10H-phenothiazine]	preserve
Chlorprothixene [reference compound]	preserve

Same assay, conditions: mouse

Compound	off-target effects such as sedation
CN1CCCCC1CCN1c2ccccc2Sc2ccc(F)cc21 (stereo not drawn) [TC84-110, 2-fluoro-10-(2-(1-methylpiperidin-2-yl)ethyl)-10H-phenothiazine]	no discernable off-target effects

Same assay, conditions: rotarod; compared to DMSO; normalized to pre-ICH function

Compound	motor function
CN1CCCCC1CCN1c2ccccc2Sc2ccc(F)cc21 (stereo not drawn) [TC84-110, 2-fluoro-10-(2-(1-methylpiperidin-2-yl)ethyl)-10H-phenothiazine]	preserve
Chlorprothixene [reference compound]	preserve

Tested on: C. elegans
Test: Lifespan in C. elegans
Type: in vivo
Conditions: not given

Compound	lifespan in C. elegans
CC(=O)c1ccc2c(c1)N(C(C)=O)c1ccccc1S2 [TC84-13, 1,1′-(10H-phenothiazine-2,10-diyl)bis(ethan-1-one)]	increased lifespan
CC(=O)c1ccc2c(c1)N(C(C)=O)c1ccccc1[S+]2[O-] (stereo not drawn) [TC84-20, 1,1′-(5-oxido-10H-phenothiazine-2,10-diyl)bis(ethan-1-one)]	increased lifespan
CC(=O)N1c2ccccc2[S+]([O-])c2ccc(C(F)(F)F)cc21 (stereo not drawn) [TC84-38, 1-(5-oxido-2-(trifluoromethyl)-10H-phenothiazin-10-yl)ethan-1-one]	increased lifespan
CC(=O)N1c2ccccc2[S+]([O-])c2ccc(Cl)cc21 (stereo not drawn) [TC84-39, 1-(2-chloro-5-oxido-10H-phenothiazin-10-yl)ethan-1-one]	increased lifespan
CN1CCCCC1CCN1c2ccccc2Sc2ccc(F)cc21 (stereo not drawn) [TC84-110, 2-fluoro-10-(2-(1-methylpiperidin-2-yl)ethyl)-10H-phenothiazine]	increased lifespan
Cc1cc2c(cc1C)N(CCCN(C)C)c1ccccc1S2 [TC84-124, 3-(2,3-dimethyl-10H-phenothiazin-10-yl)-N,N-dimethylpropan-1-amine]	increased lifespan

Same assay, conditions: Table 2; class letters I, D, N

Compound	Lifespan
CC(=O)c1ccc2c(c1)N(C(C)=O)c1ccccc1S2 [TC84-13, 1,1′-(10H-phenothiazine-2,10-diyl)bis(ethan-1-one)]	I
CC(=O)c1ccc2c(c1)N(C(C)=O)c1ccccc1[S+]2[O-] (stereo not drawn) [TC84-20, 1,1′-(5-oxido-10H-phenothiazine-2,10-diyl)bis(ethan-1-one)]	I
CC(=O)N1c2ccccc2[S+]([O-])c2ccc(C(F)(F)F)cc21 (stereo not drawn) [TC84-38, 1-(5-oxido-2-(trifluoromethyl)-10H-phenothiazin-10-yl)ethan-1-one]	I
CC(=O)N1c2ccccc2[S+]([O-])c2ccc(Cl)cc21 (stereo not drawn) [TC84-39, 1-(2-chloro-5-oxido-10H-phenothiazin-10-yl)ethan-1-one]	I
CN1CCCCC1CCN1c2ccccc2Sc2ccc(F)cc21 (stereo not drawn) [TC84-110, 2-fluoro-10-(2-(1-methylpiperidin-2-yl)ethyl)-10H-phenothiazine]	I
Cc1cc2c(cc1C)N(CCCN(C)C)c1ccccc1S2 [TC84-124, 3-(2,3-dimethyl-10H-phenothiazin-10-yl)-N,N-dimethylpropan-1-amine]	I

Same assay, conditions: Table 3; net protective effects in C. elegans; class letter

Compound	Lifespan
CN1CCCCC1CCN1c2ccccc2Sc2ccc(F)cc21 (stereo not drawn) [TC84-110, 2-fluoro-10-(2-(1-methylpiperidin-2-yl)ethyl)-10H-phenothiazine]	I
Cc1cc2c(cc1C)N(CCCN(C)C)c1ccccc1S2 [TC84-124, 3-(2,3-dimethyl-10H-phenothiazin-10-yl)-N,N-dimethylpropan-1-amine]	I
Chlorpromazine [reference compound]	I
Chlorprothixene [reference compound]	I 0.0493

Tested on: Abeta transgenic C. elegans
Test: Paralysis in Abeta transgenic C. elegans (Abeta toxicity)
Type: in vivo
Conditions: not given

Compound	Abeta toxicity
CN1CCCCC1CCN1c2ccccc2Sc2ccc(F)cc21 (stereo not drawn) [TC84-110, 2-fluoro-10-(2-(1-methylpiperidin-2-yl)ethyl)-10H-phenothiazine]	reduced Abeta toxicity
Cc1cc2c(cc1C)N(CCCN(C)C)c1ccccc1S2 [TC84-124, 3-(2,3-dimethyl-10H-phenothiazin-10-yl)-N,N-dimethylpropan-1-amine]	reduced Abeta toxicity

Same assay, conditions: Table 3; Abeta toxicity in C. elegans; one to six unexplained values per cell

Compound	paralysis
Chlorpromazine [reference compound]	0%
Chlorprothixene [reference compound]	64.31% and 47.65%

Tested on: microglial cells
Test: MTT viability of microglial cells (microglial toxicity)
Type: cell-based
Conditions: Table 3; microglial toxicity, presented for comparison

Compound	MTT
CN1CCCCC1CCN1c2ccccc2Sc2ccc(F)cc21 (stereo not drawn) [TC84-110, 2-fluoro-10-(2-(1-methylpiperidin-2-yl)ethyl)-10H-phenothiazine]	91.99%
Cc1cc2c(cc1C)N(CCCN(C)C)c1ccccc1S2 [TC84-124, 3-(2,3-dimethyl-10H-phenothiazin-10-yl)-N,N-dimethylpropan-1-amine]	82.48%
Chlorpromazine [reference compound]	79.38%
Chlorprothixene [reference compound]	122.40%

Same assay, conditions: percentage of MTT viability compared to unstimulated DMSO control cells; Table 2

Compound	MTT
CC(=O)c1ccc2c(c1)N(C(C)=O)c1ccccc1S2 [TC84-13, 1,1′-(10H-phenothiazine-2,10-diyl)bis(ethan-1-one)]	154.03%
CC(=O)c1ccc2c(c1)N(C(C)=O)c1ccccc1[S+]2[O-] (stereo not drawn) [TC84-20, 1,1′-(5-oxido-10H-phenothiazine-2,10-diyl)bis(ethan-1-one)]	158.76%
CC(=O)N1c2ccccc2[S+]([O-])c2ccc(C(F)(F)F)cc21 (stereo not drawn) [TC84-38, 1-(5-oxido-2-(trifluoromethyl)-10H-phenothiazin-10-yl)ethan-1-one]	149.90%
CC(=O)N1c2ccccc2[S+]([O-])c2ccc(Cl)cc21 (stereo not drawn) [TC84-39, 1-(2-chloro-5-oxido-10H-phenothiazin-10-yl)ethan-1-one]	134.67%
CN1CCCCC1CCN1c2ccccc2Sc2ccc(F)cc21 (stereo not drawn) [TC84-110, 2-fluoro-10-(2-(1-methylpiperidin-2-yl)ethyl)-10H-phenothiazine]	91.99%
Cc1cc2c(cc1C)N(CCCN(C)C)c1ccccc1S2 [TC84-124, 3-(2,3-dimethyl-10H-phenothiazin-10-yl)-N,N-dimethylpropan-1-amine]	82.48%

Tested on: mouse double-transgenic (A-beta/presenilin) model of AD
Test: not given
Conditions: treatment between 14 and 15 months; Govindarajan et al. 2011; cited from earlier work

Compound	A-beta plaques	acetylation of H3K14, H4K5, and H4K16	cognitive impairments
CCCC(=O)[O-].[Na+] [sodium butyrate]	no changes in A-beta plaques	reduced acetylation	reversed cognitive impairments

Tested on: TNF-alpha
Test: Microglial TNF-alpha secretion, LPS stimulated
Type: cell-based
Conditions: not given
Method: The efficacy of these compounds to reduce toxicity are assessed, as reflected by age-dependent paralysis, in an Abeta transgenic C. elegans model of Alzheimer's Disease. Because microglial inflammation, especially the cytokine TNF-alpha, are implicated in driving the pathophysiology of Alzheimer's Disease, […], was also assessed.

Compound	microglial TNF-alpha secretion
CN1CCCCC1CCN1c2ccccc2Sc2ccc(F)cc21 (stereo not drawn) [TC84-110, 2-fluoro-10-(2-(1-methylpiperidin-2-yl)ethyl)-10H-phenothiazine]	significantly reduced
Cc1cc2c(cc1C)N(CCCN(C)C)c1ccccc1S2 [TC84-124, 3-(2,3-dimethyl-10H-phenothiazin-10-yl)-N,N-dimethylpropan-1-amine]	significantly reduced

Same assay, conditions: Table 3; microglial inflammation, presented for comparison

Compound	TNF-a.
CN1CCCCC1CCN1c2ccccc2Sc2ccc(F)cc21 (stereo not drawn) [TC84-110, 2-fluoro-10-(2-(1-methylpiperidin-2-yl)ethyl)-10H-phenothiazine]	58.49%
Cc1cc2c(cc1C)N(CCCN(C)C)c1ccccc1S2 [TC84-124, 3-(2,3-dimethyl-10H-phenothiazin-10-yl)-N,N-dimethylpropan-1-amine]	56.73%
Chlorpromazine [reference compound]	63.83%
Chlorprothixene [reference compound]	69.84%

Same assay, conditions: percentage of TNFa vs LPS stimulated controls; Table 2

Compound	TNFa
CC(=O)c1ccc2c(c1)N(C(C)=O)c1ccccc1S2 [TC84-13, 1,1′-(10H-phenothiazine-2,10-diyl)bis(ethan-1-one)]	95.36%
CC(=O)c1ccc2c(c1)N(C(C)=O)c1ccccc1[S+]2[O-] (stereo not drawn) [TC84-20, 1,1′-(5-oxido-10H-phenothiazine-2,10-diyl)bis(ethan-1-one)]	95.41%
CC(=O)N1c2ccccc2[S+]([O-])c2ccc(C(F)(F)F)cc21 (stereo not drawn) [TC84-38, 1-(5-oxido-2-(trifluoromethyl)-10H-phenothiazin-10-yl)ethan-1-one]	97.23%
CC(=O)N1c2ccccc2[S+]([O-])c2ccc(Cl)cc21 (stereo not drawn) [TC84-39, 1-(2-chloro-5-oxido-10H-phenothiazin-10-yl)ethan-1-one]	90.88%
CN1CCCCC1CCN1c2ccccc2Sc2ccc(F)cc21 (stereo not drawn) [TC84-110, 2-fluoro-10-(2-(1-methylpiperidin-2-yl)ethyl)-10H-phenothiazine]	58.49%
Cc1cc2c(cc1C)N(CCCN(C)C)c1ccccc1S2 [TC84-124, 3-(2,3-dimethyl-10H-phenothiazin-10-yl)-N,N-dimethylpropan-1-amine]	56.73%

Tested on: not listed separately
Test: Plasma and brain concentrations after IV or oral administration in mice
Type: in vivo
Conditions: oral administration at 10 mg/kg, male C57BL/6 mice
Method: FIG. 2. Plasma and brain concentrations of TC084-110 over 8 h following a single IV injection (A) at 1 mg/kg or oral administration (B) at 10 mg/kg in male C57BL/6 mice. […] Plasma and brain concentrations at each time point represent the mean+/−SD from 3 mice.

Compound	oral availability
CN1CCCCC1CCN1c2ccccc2Sc2ccc(F)cc21 (stereo not drawn) [TC84-110, 2-fluoro-10-(2-(1-methylpiperidin-2-yl)ethyl)-10H-phenothiazine]	orally available

Same assay, conditions: single IV 1 mg/kg or oral 10 mg/kg, over 8 h, male C57BL/6 mice

Compound	brain/plasma ratio
CN1CCCCC1CCN1c2ccccc2Sc2ccc(F)cc21 (stereo not drawn) [TC84-110, 2-fluoro-10-(2-(1-methylpiperidin-2-yl)ethyl)-10H-phenothiazine]	very high

Tested on: Vero cells
Test: Viability of Vero cells (CC50)
Type: cell-based
Conditions: concentration that reduces viability of Vero cells

Compound	CC50
Chlorpromazine [reference compound]	6.7 µM
Chlorprothixene [reference compound]	3.5 µM

Tested on: not listed separately
Test: Viability of Vero cells (CC50)
Type: cell-based
Conditions: African green monkey; concentration that reduces viability of Vero cells

Compound	CC50
CCC(CC)COC(=O)[C@H](C)N[P@](=O)(OC[C@H]1O[C@@](C#N)(c2ccc3c(N)ncnn23)[C@H](O)[C@@H]1O)Oc1ccccc1 [Remdesivir, reference compound]	> 20 µM
CN1CCCCC1CCN1c2ccccc2Sc2ccc(F)cc21 (stereo not drawn) [TC84-110, 2-fluoro-10-(2-(1-methylpiperidin-2-yl)ethyl)-10H-phenothiazine]	8.1 µM
Cc1cc2c(cc1C)N(CCCN(C)C)c1ccccc1S2 [TC84-124, 3-(2,3-dimethyl-10H-phenothiazin-10-yl)-N,N-dimethylpropan-1-amine]	6.5 µM
